What was measured:
[1] = test system: α5GABAA receptors; conditions: 1 mg/kg intraperitoneal; cited from earlier work
[2] = test system: α1, α2 and α3 subunit-containing GABAA receptors; conditions: 1 mg/kg intraperitoneal; cited from earlier work
[3] = Balance beam and tail flick 1 h after isoflurane; type: in vivo, mice; conditions: 1 h after isoflurane or vehicle
Method: Mice were gently held by the scruff and allowed free movement of the tail. The tip of the tail was inserted to about 1 cm depth into a beaker of water (49° C.). The latency for the mouse to remove its tail from the water was recorded and used as an indication of nociception. […] Indicators of motor coordination and mobility include the time for the mice to spontaneously cross the beam, and the number of times the hindfoot slipped off the beam. Average values of three repetitions for each mouse were reported.

Compound | receptor occupancy of the α5GABAA receptor [1] [%] | occupancy of α1, α2 and α3 subunit-containing GABAA receptors [2] [%] | balance beam crossing times and foot slips (in words) [3] | latency to tail flick (in words) [3]
CCOC(=O)c1ncn2c1[C@@H]1CCCN1C(=O)c1cc(OC)ccc1-2 [L-655,708] | 64 | 18 |  | 
FC(F)OC(Cl)C(F)(F)F (stereo not shown) [isoflurane] |  |  | No differences were observed between treatment groups | No differences were detected in the latency to tail flick

— US9517265B2, “Methods for the prevention and/or treatment of memory impairment” (The Governing Council of the University of Toronto, priority 2010, dated 2016)
